Test results as given in PubChem BioAssay AID1918939 (Molecular Pharmacology Branch, DTP, NCI, 2023).

Tested on: 653999-131-R-J2-PDC complex spheroid viability
Assay: Anticancer human tumor 653999-131-R-J2-PDC patient-derived lung adenocarcinoma cell line growth inhibition
Details: for IC50: curve of first compound; for viability, T/C: stronger effect = lower value
Outline: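 Drug combinations with the LSD1 inhibitor iadademstat tested on tumor cells co-cultured as spheroids with endothelial cells and mesenchymal stem cells. Concentrations descended in half-log increments from clinical Cmax or 10 microM.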

[1] = second compound 0.1 µM, first compound 0.00316 µM
[2] = second compound 0.1 µM, first compound 0.01 µM
[3] = second compound 0.1 µM, first compound 0.0316 µM
[4] = second compound 0.1 µM, first compound 0.1 µM
[5] = second compound 0.316 µM, first compound 0.00316 µM
[6] = second compound 0.316 µM, first compound 0.01 µM
[7] = second compound 0.316 µM, first compound 0.0316 µM
[8] = second compound 0.316 µM, first compound 0.1 µM
[9] = second compound 1 µM, first compound 0.00316 µM
[10] = second compound 1 µM, first compound 0.01 µM
[11] = second compound 1 µM, first compound 0.0316 µM
[12] = second compound 1 µM, first compound 0.1 µM
[13] = second compound 3.16 µM, first compound 0.00316 µM
[14] = second compound 3.16 µM, first compound 0.01 µM
[15] = second compound 3.16 µM, first compound 0.0316 µM
[16] = second compound 3.16 µM, first compound 0.1 µM
[17] = second compound 10 µM, first compound 0.00316 µM
[18] = second compound 10 µM, first compound 0.01 µM
[19] = second compound 10 µM, first compound 0.0316 µM
[20] = second compound 10 µM, first compound 0.1 µM
[21] = second compound 0.1 µM, first compound 0.00949 µM
[22] = second compound 0.1 µM, first compound 0.03 µM
[23] = second compound 0.1 µM, first compound 0.0949 µM
[24] = second compound 0.1 µM, first compound 0.3 µM
[25] = second compound 0.1 µM, first compound 0.949 µM
[26] = second compound 0.1 µM, first compound 3 µM
[27] = second compound 0.316 µM, first compound 0.00949 µM
[28] = second compound 0.316 µM, first compound 0.03 µM
[29] = second compound 0.316 µM, first compound 0.0949 µM
[30] = second compound 0.316 µM, first compound 0.3 µM
[31] = second compound 0.316 µM, first compound 0.949 µM
[32] = second compound 0.316 µM, first compound 3 µM
[33] = second compound 1 µM, first compound 0.00949 µM
[34] = second compound 1 µM, first compound 0.03 µM
[35] = second compound 1 µM, first compound 0.0949 µM
[36] = second compound 1 µM, first compound 0.3 µM
[37] = second compound 1 µM, first compound 0.949 µM
[38] = second compound 1 µM, first compound 3 µM
[39] = second compound 3.16 µM, first compound 0.00949 µM
[40] = second compound 3.16 µM, first compound 0.03 µM
[41] = second compound 3.16 µM, first compound 0.0949 µM
[42] = second compound 3.16 µM, first compound 0.3 µM
[43] = second compound 3.16 µM, first compound 0.949 µM
[44] = second compound 3.16 µM, first compound 3 µM
[45] = second compound 10 µM, first compound 0.00949 µM
[46] = second compound 10 µM, first compound 0.03 µM
[47] = second compound 10 µM, first compound 0.0949 µM
[48] = second compound 10 µM, first compound 0.3 µM
[49] = second compound 10 µM, first compound 0.949 µM
[50] = second compound 10 µM, first compound 3 µM
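Note: spheroids exposed to agents for seven days before readout.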

COc1cc(Nc2ncc3c(n2)-c2ccc(Cl)cc2C(c2c(F)cccc2OC)=NC3)ccc1C(=O)O + NC1CC1c1ccc(-c2cccc(O)c2)cc1
IC50 (second compound 0.1 µM): > 1000 nM
IC50 (second compound 0.316 µM): > 1000 nM
IC50 (second compound 1 µM): > 1000 nM
IC50 (second compound 3.16 µM): 819 nM
IC50 (second compound 10 µM): > 1000 nM
viability, T/C [1]: 66.8%
viability, T/C [2]: 75.8%
viability, T/C [3]: 73.6%
viability, T/C [4]: 62.1%
viability, T/C (second compound 0.1 µM, first compound 0.316 µM): 66.8%
viability, T/C (second compound 0.1 µM, first compound 1 µM): 64.8%
viability, T/C [5]: 63.6%
viability, T/C [6]: 70.6%
viability, T/C [7]: 65.8%
viability, T/C [8]: 57.2%
viability, T/C (second compound 0.316 µM, first compound 0.316 µM): 57.3%
viability, T/C (second compound 0.316 µM, first compound 1 µM): 53.9%
viability, T/C [9]: 63.5%
viability, T/C [10]: 70.8%
viability, T/C [11]: 61.8%
viability, T/C [12]: 59.8%
viability, T/C (second compound 1 µM, first compound 0.316 µM): 57.3%
viability, T/C (second compound 1 µM, first compound 1 µM): 53.7%
viability, T/C [13]: 62.1%
viability, T/C [14]: 58.9%
viability, T/C [15]: 58%
viability, T/C [16]: 54.7%
viability, T/C (second compound 3.16 µM, first compound 0.316 µM): 51.7%
viability, T/C (second compound 3.16 µM, first compound 1 µM): 49.6%
viability, T/C [17]: 60.2%
viability, T/C [18]: 66.3%
viability, T/C [19]: 65.1%
viability, T/C [20]: 55.5%
viability, T/C (second compound 10 µM, first compound 0.316 µM): 56.8%
viability, T/C (second compound 10 µM, first compound 1 µM): 53.5%

Cn1ncnc1C1c2n[nH]c(=O)c3cc(F)cc(c23)NC1c1ccc(F)cc1 (stereo not given) + NC1CC1c1ccc(-c2cccc(O)c2)cc1
IC50 (second compound 0.1 µM): > 100 nM
IC50 (second compound 0.316 µM): > 100 nM
IC50 (second compound 1 µM): > 100 nM
IC50 (second compound 3.16 µM): > 100 nM
IC50 (second compound 10 µM): > 100 nM
viability, T/C (second compound 0.1 µM, first compound 0.000316 µM): 90.3%
viability, T/C (second compound 0.1 µM, first compound 0.001 µM): 95.9%
viability, T/C [1]: 95%
viability, T/C [2]: 90.7%
viability, T/C [3]: 84.6%
viability, T/C [4]: 83.4%
viability, T/C (second compound 0.316 µM, first compound 0.000316 µM): 92.2%
viability, T/C (second compound 0.316 µM, first compound 0.001 µM): 96.2%
viability, T/C [5]: 101%
viability, T/C [6]: 91.4%
viability, T/C [7]: 82.2%
viability, T/C [8]: 80%
viability, T/C (second compound 1 µM, first compound 0.000316 µM): 90%
viability, T/C (second compound 1 µM, first compound 0.001 µM): 97.4%
viability, T/C [9]: 99.8%
viability, T/C [10]: 90.6%
viability, T/C [11]: 75.9%
viability, T/C [12]: 82.6%
viability, T/C (second compound 3.16 µM, first compound 0.000316 µM): 89.7%
viability, T/C (second compound 3.16 µM, first compound 0.001 µM): 94.4%
viability, T/C [13]: 90.3%
viability, T/C [14]: 85.1%
viability, T/C [15]: 82.7%
viability, T/C [16]: 80%
viability, T/C (second compound 10 µM, first compound 0.000316 µM): 85.5%
viability, T/C (second compound 10 µM, first compound 0.001 µM): 88.3%
viability, T/C [17]: 94.8%
viability, T/C [18]: 86.3%
viability, T/C [19]: 82.5%
viability, T/C [20]: 78.6%

NS(=O)(=O)OCC1CC(n2ccc3c(NC4CCc5ccccc54)ncnc32)CC1O (stereo not given) + NC1CC1c1ccc(-c2cccc(O)c2)cc1
IC50 (second compound 0.1 µM): > 3000 nM
IC50 (second compound 0.316 µM): > 3000 nM
IC50 (second compound 1 µM): > 3000 nM
IC50 (second compound 3.16 µM): > 3000 nM
IC50 (second compound 10 µM): > 3000 nM
viability, T/C [21]: 94.2%
viability, T/C [22]: 97.9%
viability, T/C [23]: 107%
viability, T/C [24]: 74.1%
viability, T/C [25]: 64.9%
viability, T/C [26]: 60%
viability, T/C [27]: 91.8%
viability, T/C [28]: 95.7%
viability, T/C [29]: 118%
viability, T/C [30]: 81.4%
viability, T/C [31]: 66%
viability, T/C [32]: 61.6%
viability, T/C [33]: 94.4%
viability, T/C [34]: 96.4%
viability, T/C [35]: 113%
viability, T/C [36]: 72.7%
viability, T/C [37]: 64.5%
viability, T/C [38]: 60.7%
viability, T/C [39]: 83.2%
viability, T/C [40]: 102%
viability, T/C [41]: 132%
viability, T/C [42]: 64.9%
viability, T/C [43]: 64.7%
viability, T/C [44]: 61.1%
viability, T/C [45]: 94.1%
viability, T/C [46]: 105%
viability, T/C [47]: 132%
viability, T/C [48]: 68.8%
viability, T/C [49]: 61.8%
viability, T/C [50]: 48.2%

O=C(C=Cc1cccc(S(=O)(=O)Nc2ccccc2)c1)NO + NC1CC1c1ccc(-c2cccc(O)c2)cc1
IC50 (second compound 0.1 µM): > 3000 nM
IC50 (second compound 0.316 µM): 296 nM
IC50 (second compound 1 µM): 293 nM
IC50 (second compound 3.16 µM): 294 nM
IC50 (second compound 10 µM): 265 nM
viability, T/C [21]: 99.8%
viability, T/C [22]: 109%
viability, T/C [23]: 88.8%
viability, T/C [24]: 48.7%
viability, T/C [25]: 8.83%
viability, T/C [26]: 99.3%
viability, T/C [27]: 92.8%
viability, T/C [28]: 99%
viability, T/C [29]: 87.9%
viability, T/C [30]: 45.2%
viability, T/C [31]: 9.89%
viability, T/C [32]: 93.6%
viability, T/C [33]: 78.8%
viability, T/C [34]: 94.4%
viability, T/C [35]: 92.4%
viability, T/C [36]: 49.1%
viability, T/C [37]: 8.18%
viability, T/C [38]: 89%
viability, T/C [39]: 88.2%
viability, T/C [40]: 101%
viability, T/C [41]: 89.8%
viability, T/C [42]: 45.8%
viability, T/C [43]: 7.35%
viability, T/C [44]: 94.9%
viability, T/C [45]: 83.5%
viability, T/C [46]: 88.6%
viability, T/C [47]: 83.3%
viability, T/C [48]: 46%
viability, T/C [49]: 9.36%
viability, T/C [50]: 82.4%
